Experimental data reported in PMC7228089, “Odiparcil, a potential glycosaminoglycans clearance therapy in mucopolysaccharidosis VI—Evidence from in vitro and in vivo models” (PLoS ONE, 2020).
“And” between values parts separate entries of the source, which are not always exact repeats. Equal values may be shown once. Read-outs that look alike come from different tables or passages of the source.

Legend:
[1] = Odiparcil tissue exposure after repeated oral dosing (LC-MS/MS); type: in vivo, Sprague Dawley rats; settings: rat
Procedure: Sprague Dawley rats were orally administered with odiparcil for 5-days, three times a day (t.i.d) with a 25 mg/kg/dose as a suspension in Methylcellulose 400 cps 1% / Poloxamer 188 0.1% / Water. On day 5, only one dose was administered and tissues–bone from head of femurs and cartilage also from head of femurs, cornea and heart–were collected at 30 min post-dosing, 3 animals per sample. Tissues were snap-frozen immediately after collection and stored at -20°C until odiparcil quantification by LC-MS/MS. Non compartmental method was applied with Phoenix WinNonLin® to estimate the Cmax and AUC parameters. Tissue partition coefficient (Kp) was calculated on AUC values (AUC tissue / AUC plasma). Moreover, Kp for the heart was corrected for the significant blood content (26%) while it was not corrected for bone, cartilage and cornea.

[2] = tested on: Arsb^- mice; assay: Sulphated GAG accumulation in liver and kidney (Alcian Blue staining, Blyscan); type: in vivo; settings: for Liver sulphated GAG accumulation / Kidney sulphated GAG accumulation: Arsb^- mice; for Liver sulphated GAG accumulation: 6 months of treatment; for Kidney sulphated GAG accumulation: Alcian Blue
Procedure: MPS VI model nonsense mutation Arsb^m1J homozygous mice (referred to as Arsb^- throughout the manuscript) and WT littermates were obtained from internal breeding of stock mice derived from The Jackson Laboratory strain No: 005598 (C57BL/6J-Arsb^m1J/GrsrJ). Genotyping and Arsb^m1J mutation identification were performed according to the protocol provided by The Jackson Laboratory. Each study group contained mix of male and female: 6 animals in disease progression studies and between 8 and 12 animals in odiparcil treatment studies.
Housing conditions. The animals were housed in groups of 3–10 (for mice) or 2 (for rats) in polypropylene cages (floor area = 1032 cm^2) under standard conditions: room temperature (22 ± 2°C), hygrometry (55 ± 10%), light/dark cycle (12h/12h), air replacement (15–20 volumes/hour), water and food ad libitum. Mice were allowed to habituate for at least 5 days prior to experimentation. Mice were numbered by marking their tail using indelible markers. For the early disease model (treatment starting in juvenile, 4 weeks old mice), odiparcil administration in the weeks 1 to 6 was done per gavage with odiparcil in Methylcellulose 400 cps 1% / Poloxamer 188 0.1% / Water, freshly prepared every week. Later on, administration was per chow diet with odiparcil mixed before diet granulation. For advanced disease treatment (treatment starting in adult, 3 months old mice), administration was per diet from the beginning of the study. WT and Arsb^- animals were randomized into groups: control and two doses of odiparcil: 1.5 g odiparcil per kg of diet and 4.5 g odiparcil per kg of diet. For urine collection, animals were placed for 24 hours in standard metabolism cages (2 or 3 animals per cage). At the end of the studies, animals were anesthetized (O2 / isoflurane), blood for smears was collected from ocular sinus and after euthanasia samples from liver and kidney (snap frozen for total GAG analysis by Blyscan method or fixed for histology, see below) and from trachea and knee from the left hind leg were collected.
Total sulphated GAG in cell culture media were determined colorimetrically by DMMB method (described in [31] adapted for cell culture media). Total sulphated GAG in snap frozen liver and kidney samples and urine were measured using Blyscan assay from Biocolor Company (UK) following manufacturer’s instructions. Urine samples were processed directly according to the kit manual. For GAG in tissues quantification, individual pieces (approximately 50 mg) were removed from the frozen samples (liver and kidney), weighed and digested in 1 mL papain solution prepared according to the Blyscan kit protocol. After the extraction, 20 μL from each reaction were used for sulphated GAG determination following the Blyscan kit protocol. The obtained values for sulphated GAG were adjusted to the volume of papain reaction and were normalized to the weight of the tissue used or, in the case of urine samples, to creatinine levels.
GAG tissue accumulation in liver and kidney sections was estimated based on Alcian Blue staining performed at low pH (pH 1), at which the dye stained predominantly sulphated GAG. Two slides at different levels per tissue block were used. Staining with 1% Alcian Blue in hydrochloric acid was performed on automated Leica Autostainer. […] Then for each proof image, an RGB index was calculated that was the mean of Red + Green + Blue intensities of all non-black pixels. […]

Cmax ([1]; Sprague-Dawley, bone (head of femurs), po, 25 mg/kg, bone (head of femurs), oral 25 mg/kg/dose t.i.d. 5 days, read-out: Cmax (converted)): 1310 ng/g
Cmax ([1]; Sprague-Dawley, bone (head of femurs), po, 25 mg/kg, bone, oral 25 mg/kg/dose t.i.d. 5 days, read-out: Cmax (converted)): 4 µM
Kp at 120 h ([1]; Sprague-Dawley, bone (head of femurs), po, 25 mg/kg, bone, oral 25 mg/kg/dose t.i.d. 5 days, read-out: Kp AUC (AUC tissue / AUC plasma)): 0.18
Kp ([1]; Sprague-Dawley, bone, cartilage, cornea, po, 25 mg/kg/dose, bone, cartilage and cornea together, repeated oral dosing, read-out: AUC Kp): ~0.15
Cmax ([1]; Sprague-Dawley, bone, cartilage, cornea, po, 25 mg/kg/dose, span over bone, cartilage and cornea, repeated oral dosing, read-out: Cmax (converted)): 500 ng/g to 1300 ng/g and 1.7 µM to 4 µM
Cmax ([1]; Sprague-Dawley, cartilage (head of femurs), po, 25 mg/kg, cartilage (head of femurs), oral 25 mg/kg/dose t.i.d. 5 days, read-out: Cmax (converted)): 1100 ng/g
Cmax ([1]; Sprague-Dawley, cartilage (head of femurs), po, 25 mg/kg, cartilage, oral 25 mg/kg/dose t.i.d. 5 days, read-out: Cmax (converted)): 3.4 µM
Kp at 120 h ([1]; Sprague-Dawley, cartilage (head of femurs), po, 25 mg/kg, cartilage, oral 25 mg/kg/dose t.i.d. 5 days, read-out: Kp AUC (AUC tissue / AUC plasma)): 0.12
Cmax ([1]; Sprague-Dawley, cornea, po, 25 mg/kg, cornea, oral 25 mg/kg/dose t.i.d. 5 days, read-out: Cmax (converted)): 535 ng/g and 1.7 µM
Kp at 120 h ([1]; Sprague-Dawley, cornea, po, 25 mg/kg, cornea, oral 25 mg/kg/dose t.i.d. 5 days, read-out: Kp AUC (AUC tissue / AUC plasma)): 0.12
Kp at 120 h ([1]; Sprague-Dawley, heart, po, 25 mg/kg, heart, corrected for blood content (26%), oral 25 mg/kg/dose t.i.d. 5 days, read-out: blood corrected Kp AUC): ~0.44
Kp at 120 h ([1]; Sprague-Dawley, heart, po, 25 mg/kg, heart, not blood corrected, oral 25 mg/kg/dose t.i.d. 5 days, read-out: Kp AUC (AUC tissue / AUC plasma)): 0.69
Cmax ([1]; Sprague-Dawley, heart, po, 25 mg/kg, heart, oral 25 mg/kg/dose t.i.d. 5 days, read-out: Cmax (converted)): ~4600 ng/g and ~14.3 µM
Cmax ([1]; Sprague-Dawley, plasma, po, 25 mg/kg, plasma, oral 25 mg/kg/dose t.i.d. 5 days, 30 min after last administration, read-out: Cmax (converted)): ~7300 ng/mL
Cmax ([1]; Sprague-Dawley, plasma, po, 25 mg/kg, plasma, oral 25 mg/kg/dose t.i.d. 5 days, read-out: Cmax (converted)): ~22.5 µM
AUC ([1]; Sprague-Dawley, plasma, oral 25 mg/kg/dose t.i.d. 5 days, read-out: AUC (converted)): 14800 ng·h/mL
AUC ([1]; bone, oral 25 mg/kg/dose t.i.d. 5 days): 2 646 ng.h/g
AUC ([1]; cartilage, oral 25 mg/kg/dose t.i.d. 5 days): 1 805 ng.h/g
AUC ([1]; cornea, oral 25 mg/kg/dose t.i.d. 5 days): 1 737 ng.h/g
AUC ([1]; heart, oral 25 mg/kg/dose t.i.d. 5 days): 10 203 ng.h/g
Cmax ([1]; plasma, oral 25 mg/kg/dose t.i.d. 5 days, 30 min after last administration, 25 mg/kg): 7 297 ng/mL
Compound: Cc1cc(=O)oc2cc(O[C@@H]3SC[C@@H](O)[C@H](O)[C@H]3O)ccc12 [Odiparcil, 4-methyl-7-(5-thio-β-D-xylopyranosyloxy)-2 H-chromen-2-one]
Liver sulphated GAG accumulation ([2]; early disease model, 1.5 and 4.5 g/kg diet): significantly reduced liver GAG at both doses
Kidney sulphated GAG accumulation ([2]; early disease model, 6 months, effect not significant): reduced kidney GAG
Liver sulphated GAG accumulation ([2]; established disease model, highest dose (4.5 g/kg diet)): significantly reduced liver GAG
Kidney sulphated GAG accumulation ([2]; established disease model, 6 months): significant only in the latter model
Liver and kidney GAG levels in wild type animals ([2]; wild type mice, two doses of odiparcil, 6 months): no significant effects on GAG levels
